Experimental data from patent US20230149419A1, “COMPOSITION FOR PREVENTING OR TREATING NEUROINFLAMMATORY DISEASES, COMPRISING CHLORPROMAZINE” (GliaCellTech Inc., priority 2020, published 2023).

Tests used:
[1] = tested on: primary microglia from wild-type mice; experiment: IL-1β secretion after LPS and inflammasome activation (nigericin/ATP), wild-type microglia; format: cell-based, mouse; settings: chlorpromazine 0.5 μM 30 min, LPS 1 μg/mL 3 h
Experimental: (§1) Primary microglia were obtained from wild-type mice and Psen2^N141I/+ mice with Alzheimer's disease. Specifically, brains were excised from neonatal mice 1 to 3 days old and cells were obtained therefrom. The cells were cultured in Dulbecco's modified Eagle's medium (DMEM, Corning) supplemented with 10% heat-inactivated fetal bovine serum (HI-FBS, Hyclone) and 1% penicillin-streptomycin (Hyclone). Primary microglia were isolated in vitro by tapping after 12 days of culturing. Purity of primary microglia was estimated by immunostaining with an antibody against Iba-1, which is a microglial marker.
IL-1β is a cytokine released from an activated inflammasome complex in microglia. For secretion of the cytokine, additional treatment with a drug for inducing activation of the inflammasome complex is necessary following LPS-induced inflammation. […] Application of the test groups thus obtained could divide groups 5 to 8 of Example 5-2 into 10 subgroups according to treatment with nigericin and ATP.

[2] = tested on: primary microglia from wild-type (WT) mice; experiment: fAβ42-induced cytokine secretion in primary microglia (ELISA), wild-type; format: cell-based, mouse; settings: 4 μM fAβ42, 0.5 μM chlorpromazine (Group 24)
Experimental: as §1
Specifically, FITC-conjugated amyloid beta 1-42 was prepared according to the follow reference (Cho, M.-H. et al. “Autophagy in microglia degrades extracellular β-amyloid fibrils and regulates the NLRP3 inflammasome.” Autophagy 10, 1761-1775 (2014)).
The primary cultures of microglia prepared in Example 5-1 from the Psen2 mutation (KI/+) mouse model of Alzheimer's disease and the wild-type (WT) mice were directly treated with 4 μM of the fibrilized amyloid beta 1-42 (fAβ42), followed by incubation with or without 0.5 μM chlorpromazine.

[3] = tested on: Nr1d1 mRNA in primary microglia from wild-type mice; experiment: Nr1d1 mRNA expression in primary microglia (qRT-PCR), wild-type; format: cell-based, mouse
Experimental: (§2) Effects were analyzed in the experimental group not treated with chlorpromazine on the obtained microglia and the experimental group treated with chlorpromazine at a dose of 0.5 μM.

[4] = tested on: Nr1d1 mRNA in primary microglia from Psen2 mouse model of Alzheimer's disease; experiment: Nr1d1 mRNA expression in primary microglia (qRT-PCR), Psen2 mutation; format: cell-based
Experimental: as §2

[5] = tested on: REV-ERBα protein in primary microglia from wild-type mice; experiment: REV-ERBα protein expression in primary microglia (western blotting), wild-type; format: cell-based, mouse
Experimental: (§3) Effects were analyzed in the experimental group not treated with chlorpromazine on the obtained microglia and the experimental group treated with chlorpromazine at a dose of 0.5 μM. For analysis of REV-ERBα protein expression levels, western blotting was carried out. Specifically, primary microglia were lysed in a 1% Triton X-100 lysis buffer (1% Triton X-100, 250 mM sucrose, 1 mM EDTA, 1 mM phenylmethylsulfonyl fluoride, and 50 mM NaCl in 20 mM Tris-HCl, pH 7.4) with 1×protease and phosphatase inhibitors (Thermo Fisher Scientific) and 0.1 M dithiothreitol (Sigma-Aldrich). The cell lysates were separated by sodium dodecyl sulfate-polyacrylamide gel electrophoresis and transferred to polyvinylidene fluoride membranes. The membranes were incubated with the appropriate primary antibodies, and bound antibodies were detected by species-specific, horseradish peroxidase-conjugated secondary antibodies. Chemiluminescence detection was performed to analyze the protein bands of interest.

[6] = tested on: REV-ERBα protein in primary microglia from Psen2 mouse model of Alzheimer's disease; experiment: REV-ERBα protein expression in primary microglia (western blotting), Psen2 mutation; format: cell-based
Experimental: as §3

wild-type mice = experiment: Y-maze test, wild-type mice; format: in vivo, mouse; settings: for Y-maze Alternation % / Y-maze No. of Arm entry: chlorpromazine 0.25 mg/kg i.p., mean±SEM
Experimental: (§4) Specifically, the Y-maze was used to evaluate spatial working memory. The assay was conducted in white plastic arms of a Y-shaped maze. A mouse was placed in the center of the maze and was allowed to freely explore the arms for 5 min. The experiment was recorded with EthoVision software (Noldus). The number of arm entries and the number of triads were analyzed to calculate the percentage of alternation by dividing the number of three consecutive arm entries (triads) by the number of possible triads×100 (total arm entries−2).
(§5) An examination was made to see whether LPS-induced inflammation causes memory decline and chlorpromazine reverses the LPS-induced inflammation in disease animal models. To analyze memory and behavior performance, the Y-maze test as in Example 4 was conducted.

[7] = tested on: Psen2 mutation mouse model of Alzheimer's disease; experiment: Y-maze test, Psen2 mutation mouse model of Alzheimer's disease; format: in vivo; settings: for Y-maze Alternation % / Y-maze No. of Arm entry: chlorpromazine 0.25 mg/kg i.p., mean±SEM
Experimental: as §4, §5

[8] = WT microglia, no LPS, 0.5 μM chlorpromazine (Group 28), mean±SEM
[9] = KI/+ microglia, no LPS, 0.5 μM chlorpromazine (Group 30), mean±SEM
[10] = Psen2 mutation microglia, group 30, chlorpromazine 0.5 μM
[11] = wild-type/LPS(+)/CPZ(+) (Group 44), LPS 0.35 μg/kg
[12] = wild-type/LPS(−)/CPZ(+) (Group 42)
[13] = Alzheimer's disease model/LPS(+)/CPZ(+) (Group 48), LPS 0.35 μg/kg
[14] = Alzheimer's disease model/LPS(−)/CPZ(+) (Group 46)

CN(C)CCCN1c2ccccc2Sc2ccc(Cl)cc21 [CPZ, 3-(2-chloro-10H-phenothiazin-10-yl)-N,N-dimethyl-propan-1-amine]
IL-1β secreted ([1]; wild-type microglia (Group 15), Nig(+)/ATP(−), nigericin 10 μM 40 min): 857.639 pg/mL
IL-1β secreted ([1]; wild-type microglia (Group 17), Nig(−)/ATP(+), ATP 5 mM 40 min): 1251.571 pg/mL
Secreted inflammatory cytokine CCL2 [2]: 1062.537 pg/mL
Secreted inflammatory cytokine CCL5 [2]: 1204.562 pg/mL
Secreted inflammatory cytokine CXCL1 [2]: 1237.646 pg/mL
Secreted inflammatory cytokine IL-6 [2]: 1164.200 pg/mL
Secreted inflammatory cytokine TNF-α [2]: 1218.952 pg/mL
Nr1d1 mRNA expression [3, 8]: 0.860 ± 0.040 fold
Nr1d1 mRNA expression level (in words) ([3]; wild-type microglia, chlorpromazine 0.5 μM): ineffective
Nr1d1 mRNA expression [4, 9]: 0.976 ± 0.094 fold
Nr1d1 mRNA expression level (in words) [4, 10]: restored to the level in the wild-type group
REV-ERBα protein expression [5, 8]: 0.956 ± 0.096 fold
REV-ERBα protein expression level (in words) ([5]; wild-type microglia, group 28): no effect
REV-ERBα protein expression [6, 9]: 0.882 ± 0.032 fold
REV-ERBα protein expression level (in words) [6, 10]: restored to the level in the wild-type group
memory performance, arm alternation in Y-maze (in words) (wild-type mice; wild-type mice, chlorpromazine alone (group 42) or with LPS (group 44)): normal memory performance
Y-maze Alternation % (wild-type mice; [11]): 64.333 ± 3.175%
Y-maze No. of Arm entry (wild-type mice; [11]): 17.889 ± 1.136
Y-maze Alternation % (wild-type mice; [12]): 66.667 ± 4.681%
Y-maze No. of Arm entry (wild-type mice; [12]): 20.167 ± 1.537
Y-maze Alternation % [7, 13]: 72.000 ± 3.964%
Y-maze No. of Arm entry [7, 13]: 16.500 ± 1.368
Y-maze Alternation % [7, 14]: 77.714 ± 4.699%
Y-maze No. of Arm entry [7, 14]: 18.286 ± 1.063
LPS-induced memory decline, arm alternation in Y-maze (in words) ([7]; LPS-injected Psen2 mutation mouse model, group 48): sufficient recovery
memory performance, arm alternation in Y-maze (in words) ([7]; Psen2 mutation mice, chlorpromazine alone vs no drug treatment): no significant different memory performance
